# Reference: patent publication US8455528B2, “Imidazole derivatives useful as inhibitors of FAAH” (Merck Sharp & Dohme Corp., priority 2008, dated 2013)
# Where a name gives a salt, the structure may show the parent alone.
# Biological target: T1, Human FAAH (Homo sapiens, UniProt O00519)
# T1 construct: The full length FAAH was subcloned into the mammalian expression vector, pcDEF.neo; expressed in transfected cells
# T1 sequence (O00519 1-579): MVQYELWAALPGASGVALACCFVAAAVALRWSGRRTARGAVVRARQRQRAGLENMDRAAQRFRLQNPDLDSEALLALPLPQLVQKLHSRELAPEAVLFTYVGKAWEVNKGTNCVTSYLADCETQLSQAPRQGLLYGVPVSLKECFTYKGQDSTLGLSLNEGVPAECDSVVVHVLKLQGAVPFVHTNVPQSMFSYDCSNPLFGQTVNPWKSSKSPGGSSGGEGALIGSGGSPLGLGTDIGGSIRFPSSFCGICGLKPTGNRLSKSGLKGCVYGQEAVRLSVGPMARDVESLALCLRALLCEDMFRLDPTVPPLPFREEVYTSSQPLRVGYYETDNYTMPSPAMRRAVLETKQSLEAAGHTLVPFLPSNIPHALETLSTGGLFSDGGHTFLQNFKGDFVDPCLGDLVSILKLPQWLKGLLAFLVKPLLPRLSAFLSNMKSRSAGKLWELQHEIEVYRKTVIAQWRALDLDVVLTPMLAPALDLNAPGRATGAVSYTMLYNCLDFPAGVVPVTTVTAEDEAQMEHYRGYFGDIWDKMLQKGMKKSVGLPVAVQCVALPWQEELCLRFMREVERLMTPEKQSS
# Experiment: Human FAAH lysate assay (CHO cell lysate, AAMCA fluorescent substrate)
# Assay type: biochemical
# Details: FAAH inhibition, CHO cell lysate expressing human FAAH; read-out: Human Lysate
# Text: To assist in assay development stable cell lines for human, murine and rat full length FAAH were developed. Human FAAH cDNA (Accession No: NM-001441.1) was purchased from Origene (Rockville, Md.). The full length FAAH was subcloned into the mammalian expression vector, pcDEF.neo, using XbaI and EcoRI restriction sites and used for stable cell line generation. CHO cells expressing FAAH were used to prepare either crude cell lysate or microsome fractions. To harvest cells, tissue culture media was decanted, the monolayer washed three times with Ca^++Mg^++ free PBS and cells recovered after 15 min in enzyme free dissociation media (Millipore Corp, Billerica, Mass.). Cells were collected by centrifuging at 2000 rpm for 15 min. and the cell pellet re-suspended with 50 mM HEPES (pH 7.4) containing 1 mM EDTA and the protease inhibitors aprotinin (1 mg/ml) and leupeptin (100 μM). […] The pellet containing FAAH-enriched microsomes was re-suspend in 50 mM HEPES, (pH 7,4) 1 mM EDTA, and any remaining DNA sheared by passage of material through a 23 gauge needle and aliquots of enzyme were store at -80° C. prior to use. […] (American Radiolabeled Chemicals; 1 mCi/ml) with FAAH (Life Sciences (1995), 56, 1999-2005 and Journal of Pharmacology and Experimented Therapeutics (1997), 283, 729-734), Analytical. Biochemistry (2003), 318, 270-5. […] Analytical. Biochemistry (2005). 343, 143-51 […] Fluorescent release as a measure of FAAH activity was monitored by reading the plate in a CytoFluor Multiplate Reader ([…]). Whole cell assay is conducted with cells harvested after rinsing tissue culture flasks three times with Ca^++Mg^++ free PBS, incubating for 10 min in Enzyme free dissociation media and centrifuging for 5 minutes at 1,000 rpm in table top centrifuge. Cells are resuspended in assay buffer at desired cell number in (4×10^4 cells/assay in 96-well format; 1×10^4 cells/assay in 384-well format) and assayed as described. […] The reaction was terminated by addition of 2 volumes of chloroform:methanol (1:1) and mixed by vortexing. […] K., et al. A fluorescence-based assay for fatty acid amide hydrolase compatible with high-throughput screening. Anal. Biochem. 343:143-51 (2005) • Wilson S. J., et l. A high-throughput-compatible assay for determining the activity of fatty acid amide hydrolase. Anal Biochem. 318:270-5 (2003).
row,IC50,SMILES
1,370 nM,"Cn1c(-c2ccccc2)nc(Sc2ccc(Cl)cc2)c1-c1ccc(C#N)cc1 [Ex 3, 4-{4-[(4-chlorophenyl)thio]-1-methyl-2-phenyl-1H-imidazol-5-yl}benzonitrile]"

# Same assay, conditions: human FAAH lysate; read-out: Human FAAH lysate assay: IC50
row,SMILES,IC50
1,"Cn1c(-c2ccccn2)nc(-c2ccc(S(C)(=O)=O)nc2)c1Sc1ccc(Cl)cn1 [Example 100, 5-Chloro-2-({1-methyl-4-[6-(methylsulfonyl)pyridin-3-yl]-2-pyridin-2-yl-1H-imidazol-5-yl}thio)pyridine]",48 nM
2,"Cn1cnc(-c2ccc(OC(C)(C)C(N)=O)cc2)c1Sc1ccc(Cl)cn1 [Example 124, 2-(4-{5-[(5-chloropyridin-2-yl)thio]-1-methyl-1H-imidazol-4-yl}phenoxy)-2-methylpropanamide]",36 nM
3,"CS(=O)(=O)c1ccc(-c2nc3n(c2Sc2ccc(Cl)cc2)CCC2CCCNC32)cc1 (stereo not drawn) [Example 128, 3-[(4-chlorophenyl)thio]-2-[4-(methylsulfonyl)phenyl]-5,6,6a,7,8,9,10,10a-octahydroimidazo[1,2-h]-1,7-naphthyridine]",98 nM
4,"CC(C)(O)c1ccc(-c2nc3c4ncccc4ccn3c2Sc2ccc(Cl)cc2)cc1 [Example 130, 2-(4-{3-[(4-chlorophenyl)sulfanyl]imidazo[1,2-h][1,7]naphthyridin-2-yl}phenyl)propan-2-ol]",47.1 nM
5,"Cn1c(C2CC2)nc(-c2ccc3nc(C(F)F)ccc3c2)c1Sc1ccc(Cl)cn1 [Example 131, 6-{5-[(5-chloropyridin-2-sulfanyl]-2-cyclopropyl-1-methyl-1H-imidazol-4-yl}-2-difluoromethyl)quinoline]",17.9 nM
6,"Cn1cc(-c2nc(-c3ccc(S(C)(=O)=O)cc3)c(Sc3ccc(Cl)cc3)n2C)cn1 [Example 134, 4-{5-[(4-chlorophenyl)sulfanyl]-1-methyl-4-[4-(methylsulfonyl)phenyl]-1H-imidazol-2-yl}-1-methyl-1H-pyrazole]",13.9 nM
7,"Cn1c(-c2cccs2)nc(-c2ccc(S(C)(=O)=O)cc2)c1Sc1ccc(Cl)cc1 [Example 137, 5-[(4-chlorophenyl)sulfanyl]-1-methyl-4-[4-(methylsulfonyl)phenyl]-2-(thiophen-2-yl)-1H-imidazole]",16.5 nM

# Now from value to compound:
row,IC50,SMILES
1,37.8 nM,"Cn1c(-c2ccccn2)nc(-c2ccc(C(C)(C)O)nc2)c1Sc1ccc(Cl)cc1 [Example 105, 2-(5-{5-[(4-Chlorophenyl)thio]-1-methyl-2-pyridin-2-yl-1H-imidazol-4-yl}pyridin-2-yl)propan-2-ol]"
2,17.5 nM,"Cn1c(-c2ccccn2)nc(-c2ccc(-c3ccco3)cc2)c1Sc1ccc(Cl)cc1 [Example 116, 5-[(4-chlorophenyl)thio]-4-[4-(2-furyl)phenyl]-1-methyl-2-pyridin-2-yl-1H-imidazol-3-ium trifluoroacetate]"
3,14.3 nM,"Cn1c(-c2ccccn2)nc(-c2ccc(-c3nccs3)cc2)c1Sc1ccc(Cl)cc1 [Example 119, 2-{5-[(4-chlorophenyl)thio]-1-methyl-4-[4-(1,3-thiazol-2-yl)phenyl]-1H-imidazol-2-yl}pyridine]"
4,198 nM,"Cn1cnc(-c2ccc(OC(C)(C)CO)cc2)c1Sc1ccc(Cl)cn1 [Example 125, 5-[(5-chloropyridin-2-yl)thio]-4-[4-(2-hydroxy-1,1-dimethylethoxy)phenyl]-1-methyl-1H-imidazol-3-ium trifluoroacetate]"
5,186 nM,"Cn1cnc(-c2ccc(OC(C)(C)C(O)C(F)(F)F)cc2)c1Sc1ccc(Cl)cn1 (stereo not drawn) [Example 126, 3-(4-{5-[(5-chloropyridin-2-yl)thio]-1-methyl-1H-imidazol-4-yl}phenoxy)-1,1,1-trifluoro-3-methylbutan-2-ol]"
6,77.9 nM,"CC(CO)NC(=O)c1ccc(-c2nc(-c3ccccn3)n(C)c2Sc2ccc(Cl)cc2)cc1 (stereo not drawn) [Example 127, 4-{5-[(4-chlorophenyl)thio]-1-methyl-2-pyridin-2-yl-1H-imidazol-4-yl}-N-(2-hydroxy-1-methylethyl)benzamide]"
7,15.6 nM,"Cn1c(I)nc(-c2ccc(S(C)(=O)=O)cc2)c1Sc1ccc(Cl)cc1 [Example 133, 5-[(4-chlorophenyl)thio]-2-iodo-1-methyl-4-[4-(methylsulfonyl)phenyl]-1H-imidazole]"

# Same assay, conditions: human FAAH lysate; read-out: hFAAH lysate IC50
row,SMILES,IC50
1,COc1cnc(Sc2c(-c3ccc(S(C)(=O)=O)nc3)nc(-c3ccccn3)n2C)nc1 [Example 104],202 nM
2,Cn1c(-c2ccccn2)nc(-c2ccc(C(C)(C)O)nc2)c1Sc1ccc(Cl)cn1 [Example 106],37.8 nM
3,Cn1c(-c2ccccn2)nc(-c2ccc(C(C)(C)O)nc2)c1Sc1ccc(F)c(F)c1 [Example 107],60.2 nM
4,Cn1c(-c2ccccn2)nc(-c2ccc(C(C)(C)O)nc2)c1Sc1ccc(F)cn1 [Example 109],134 nM
5,Cn1c(-c2ccccn2)nc(-c2ccc(C(C)(C)O)nc2)c1Sc1ccc(Cl)cc1F [Example 110],33.7 nM
6,Cn1c(-c2ccc(F)c(F)c2)nc(-c2ccc(C(C)(C)O)nc2)c1Sc1ccc(Cl)cc1 [Example 114],87.4 nM
7,Cn1c(-c2ccccn2)nc(-c2ccc(-c3ncco3)cc2)c1Sc1ccc(Cl)cn1 [Example 120],26.4 nM
8,Cn1c(-c2ccccn2)nc(-c2ccc(-c3ccnnc3)cc2)c1Sc1ccc(Cl)cn1 [Example 122],15.7 nM
9,COC(=O)c1ccc(-c2nc3c4ncccc4ccn3c2Sc2ccc(Cl)cc2)cc1 [Example 129],12.2 nM
10,Cn1c(-c2ccsc2)nc(-c2ccc(S(C)(=O)=O)cc2)c1Sc1ccc(Cl)cc1 [Example 135],25.9 nM
11,COc1ccc(-c2nc(-c3ccc(S(C)(=O)=O)cc3)c(Sc3ccc(Cl)cc3)n2C)cn1 [Example 136],122 nM
12,Cn1c(-c2nccs2)nc(-c2ccc(S(C)(=O)=O)cc2)c1Sc1ccc(Cl)cc1 [Example 138],24.8 nM
13,Cn1c(-c2ncco2)nc(-c2ccc(S(C)(=O)=O)cc2)c1Sc1ccc(Cl)cc1 [Example 139],21.2 nM

# Next, values leading:
row,IC50,SMILES
1,6.3 nM,Cn1c(-c2ccccn2)nc(-c2ccc(S(C)(=O)=O)nc2)c1Sc1ccc(Cl)cc1 [Example 101]
2,15.4 nM,Cn1c(-c2ccccn2)nc(-c2ccc(S(C)(=O)=O)nc2)c1Sc1ccc(F)cc1F [Example 102]
3,37.6 nM,Cn1c(-c2ccccn2)nc(-c2ccc(S(C)(=O)=O)nc2)c1Sc1ccc(F)c(F)c1 [Example 103]
4,33.2 nM,Cn1c(-c2ccccn2)nc(-c2ccc(C(C)(C)O)nc2)c1Sc1ccc(F)cc1F [Example 108]
5,114 nM,Cn1c(-c2ccc(F)c(F)c2)nc(-c2ccc(C(C)(C)O)nc2)c1Sc1ccc(Cl)cc1F [Example 112]
6,67.9 nM,Cn1c(-c2ccc(F)cc2)nc(-c2ccc(C(C)(C)O)nc2)c1Sc1ccc(Cl)cc1F [Example 113]
7,67 nM,Cn1c(-c2ccc(F)cc2)nc(-c2ccc(C(C)(C)O)nc2)c1Sc1ccc(Cl)cc1 [Example 115]
8,8.7 nM,Cn1c(-c2ccccn2)nc(-c2ccc(-c3ccsc3)cc2)c1Sc1ccc(Cl)cc1 [Example 117]
9,7.7 nM,Cn1c(-c2ccccn2)nc(-c2ccc(-c3ccncc3)cc2)c1Sc1ccc(Cl)cn1 [Example 118]
10,18.5 nM,Cn1c(-c2ccccn2)nc(-c2ccc(-c3cccs3)cc2)c1Sc1ccc(Cl)cc1 [Example 121]
11,144 nM,"CN(C)C(=O)c1ccc2cc(-c3nc(C4CC4)n(C)c3Sc3ccc(Cl)cn3)ccc2n1 [Example 132, 6-{5-[(5-chloropyridin-2-yl)thio]-2-cyclopropyl-1-methyl-1H-imidazol-4-yl}-N,N-dimethylquinoline-2-carboxamide]"
